Data: article PMC6017171, “Comparative Evaluation of the Antioxidant and Anti-Alzheimer’s Disease Potential of Coumestrol and Puerarol Isolated from Pueraria lobata Using Molecular Modeling Studies” (Molecules : A Journal of Synthetic Chemistry and Natural …, 2018)
“Also recorded” adds a separate entry of the source. Read-outs that look alike come from different tables or passages of the source.

How the values were obtained:
[1] = DPPH radical scavenging activity; conditions: mean ± S.E.M of triplicate experiments
Method: DPPH radical scavenging activity was evaluated using the method of Blois, with slight modification. Test samples and DPPH were dissolved in methanol. Each test sample (160 µL) at various concentrations was added to 40 µL of DPPH solution (1.5 × 10^−4 M). After gently mixing and standing at room temperature for 30 min, the optical density of the reactant was measured at 520 nm using a VERSAmax microplate spectrophotometer (Molecular Devices, Sunnyvale, CA, USA). […] L-Ascorbic acid was used as a positive control.

[2] = ONOO− scavenging activity (DHR 123 oxidation); conditions: mean ± S.E.M of triplicate experiments; read-out: EC50 Peroxynitrite scavenging
Method: In brief, the rhodamine buffer (pH 7.4) consisted of 50 mM sodium phosphate dibasic, 50 mM sodium phosphate monobasic, 90 mM sodium chloride, 5.0 mM potassium chloride, and 100 μM diethylenetriamine pentaacetate. […] The assay buffer was prepared prior to use and placed on ice. Test samples were dissolved in 10% DMSO (100 μM final concentration). The background and final fluorescent intensities were measured 5 min after treatment with and without the addition of authentic ONOO^− (10 μM), dissolved in 0.3 N sodium hydroxide. […] L-penicillamine was used as a positive control.

[3] = Western blot analysis for inhibition of ONOO−-mediated nitrotyrosine formation (BSA nitration)
Method: Figure 2 Dose-depended inhibition of ONOO^−-mediated albumin nitration by coumestrol and puerarol. Mixtures of test samples, bovine serum albumin (BSA), and ONOO^− were incubated with shaking at 37 °C for 30 min. The reactant was resolved in 10% polyacrylamide gel via electrophoresis. (a) Coumestrol; and (b) puerarol, were used at the indicated concentrations; (c) Quantification of band intensity was calculated using CS Analyzer 3.00 (ATTO Corp., Tokyo, Japan). ^# p < 0.05 indicates a significant difference from the untreated normal group, * p < 0.05 indicate significant differences from the ONOO^− treated control.
The inhibition of ONOO^−-nitrotyrosine formation was evaluated using the method of Aulak et al.. Samples were added to BSA and mixed with ONOO^− (200 µM). After a 10 min incubation period (room temperature), the sample solution was added to Bio-Rad 2X Laemmli Sample buffer with mercaptoethanol and then boiled for 7 min. The reactant was resolved in 10% polyacrylamide gel via electrophoresis and transferred to PVDF membranes. Pre-stained blue protein markers were used for molecular weight determination. […] Densitometric analysis of the western blot results was determined using a CS analyzer v3.00 (ATTO Corp.).

[4] = molecular target: T1, Electric eel AChE (Electrophorus electricus, UniProt O42275); assay: In vitro ChE enzyme assay (Ellman), AChE; format: biochemical
T1 construct: purchased Sigma-Aldrich Co. (St. Louis, MO, USA)
Method: (§1) Electric eel AChE (EC 3.1.1.7), horse serum BChE (EC 3.1.1.8), acetylthiocholine iodide (ATCh), butyrylthiocholine chloride (BTCh), 5,5-dithiobis[2-nitrobenzoic acid] […] All required reagent-grade chemicals used in this study were purchased from commercial sources. Coumestrol and puerarol were isolated from P. lobata as described by Seong et al..
(§2) The inhibitory activity of coumestrol and puerarol against ChEs was measured using the spectrophotometric methods reported by Ellman et al. and Jung et al.. ATCh and BTCh were used as substrates to assay the inhibition of AChE and BChE, respectively. All reactions were performed in triplicate and were recorded in a 96-well microplate format using a microplate spectrophotometer (Molecular Devices, Sunnyvale, CA, USA). Percent inhibition was calculated as (1 − S/E) × 100, where E and S were the enzyme activities without and with the test sample, respectively.

[5] = molecular target: T2, horse serum BChE (Equus caballus, UniProt P81908); assay: In vitro ChE enzyme assay (Ellman), BChE; format: biochemical; conditions: substrate BTCh; mean ± S.E.M of triplicate experiments
T2 construct: horse serum BChE (EC 3.1.1.8); purchased Sigma-Aldrich Co. (St. Louis, MO, USA); host or cells: horse serum
Method: as §1, §2

[6] = molecular target: T3, BACE1 (Homo sapiens, UniProt P56817); assay: In vitro BACE1 enzyme assay; format: biochemical; conditions: mean ± S.E.M of triplicate experiments
T3 construct: purchased
Method: The in vitro BACE1 enzyme assay was carried out according to the manufacturer’s recommended protocol with minor modifications. Briefly, a mixture of […] of assay buffer (50 mM sodium acetate, pH 4.5), […] of BACE1 (1.0 U/mL), […] of substrate (750 nM Rh-[…]-Quencher in 50 mM, ammonium bicarbonate) and […] of the test sample was dissolved in 10% DMSO and incubated for 60 min at 25 °C in the dark. Proteolysis of the two fluorophores (Rh-[…]-Quencher) by BACE1 was determined by monitoring formation of the fluorescent donor (Rh-EVNL) at wavelengths of 545 nm for excitation and 585 nm for emission. Fluorescence was measured with a microplate spectrofluorometer (Gemini EM, Sunnyvale, CA, USA).

[7] = molecular target: T1, Electric eel AChE; assay: Enzyme kinetic analysis for AChE inhibition (Lineweaver-Burk and secondary plots); format: biochemical; conditions: for Inhibition mode, AChE: Lineweaver-Burk plots
Method: (§3) To elucidate the mechanisms of ChE inhibition, kinetic studies of enzyme activity were performed. The slope or intercept in Lineweaver-Burk plots were drawn in SigmaPlot 12.0 as a function of inhibitor concentration, and the kinetic parameters were determined.
(§4) To determine the mechanism of inhibition, AChE, BChE, and BACE1 inhibition was evaluated by monitoring the effects of different concentrations of substrate (0.4 to 0.8 mM for AChE and BChE; 250 to 750 nM for BACE1). Specifically, AChE, BChE, and BACE1 inhibition assays were performed as described above, but the substrate concentration was varied. Inhibition modes of coumestrol and puerarol against ChEs and BACE1 were determined by Lineweaver–Burk plots. Inhibition constants (Ki) were determined by secondary plots.

[8] = molecular target: T2, horse serum BChE; assay: Enzyme kinetic analysis for BChE inhibition (Lineweaver-Burk and secondary plots); format: biochemical; conditions: for Inhibition mode, BChE: Lineweaver-Burk plots; for Ki: secondary plot
Method: as §3, §4

[9] = cited from earlier work
[10] = molecular target: T3, BACE1; assay: Enzyme kinetic analysis for BACE1 inhibition (Lineweaver-Burk and secondary plots); format: biochemical; conditions: for Inhibition mode, BACE1: Lineweaver-Burk plots; for Ki: secondary plot
Method: as §3, §4

[11] = substrate ATCh, mean ± S.E.M of triplicate experiments, read-out: IC50 AChE

T3 sequence (P56817 46-501): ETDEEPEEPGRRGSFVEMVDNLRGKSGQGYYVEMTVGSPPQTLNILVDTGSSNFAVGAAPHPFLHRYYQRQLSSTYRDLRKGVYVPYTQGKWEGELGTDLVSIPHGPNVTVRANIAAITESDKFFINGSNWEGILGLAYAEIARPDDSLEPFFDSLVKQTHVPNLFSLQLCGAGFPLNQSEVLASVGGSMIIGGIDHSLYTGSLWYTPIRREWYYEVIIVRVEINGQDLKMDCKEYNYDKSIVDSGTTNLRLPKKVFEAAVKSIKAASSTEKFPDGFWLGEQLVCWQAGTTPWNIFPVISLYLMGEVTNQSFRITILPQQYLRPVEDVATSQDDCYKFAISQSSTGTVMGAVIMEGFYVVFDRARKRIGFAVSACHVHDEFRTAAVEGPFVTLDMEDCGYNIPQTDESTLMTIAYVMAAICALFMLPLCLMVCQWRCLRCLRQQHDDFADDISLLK
T1 sequence (O42275 24-633): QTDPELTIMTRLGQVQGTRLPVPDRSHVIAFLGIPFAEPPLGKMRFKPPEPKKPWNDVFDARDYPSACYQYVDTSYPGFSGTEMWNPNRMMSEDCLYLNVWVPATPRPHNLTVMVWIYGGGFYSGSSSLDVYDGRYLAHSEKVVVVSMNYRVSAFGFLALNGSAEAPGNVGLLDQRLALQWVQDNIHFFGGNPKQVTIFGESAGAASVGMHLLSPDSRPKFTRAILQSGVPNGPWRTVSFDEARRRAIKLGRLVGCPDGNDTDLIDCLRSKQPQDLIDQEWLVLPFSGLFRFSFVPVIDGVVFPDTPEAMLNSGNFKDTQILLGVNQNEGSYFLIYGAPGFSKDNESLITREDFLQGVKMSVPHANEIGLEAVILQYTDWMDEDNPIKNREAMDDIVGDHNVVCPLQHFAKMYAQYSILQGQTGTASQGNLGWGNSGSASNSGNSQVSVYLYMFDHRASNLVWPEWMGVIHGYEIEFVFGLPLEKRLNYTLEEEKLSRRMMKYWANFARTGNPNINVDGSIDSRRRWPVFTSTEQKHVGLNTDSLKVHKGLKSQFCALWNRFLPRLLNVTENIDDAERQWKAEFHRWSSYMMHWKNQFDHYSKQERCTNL
T2 sequence (P81908 whole entry): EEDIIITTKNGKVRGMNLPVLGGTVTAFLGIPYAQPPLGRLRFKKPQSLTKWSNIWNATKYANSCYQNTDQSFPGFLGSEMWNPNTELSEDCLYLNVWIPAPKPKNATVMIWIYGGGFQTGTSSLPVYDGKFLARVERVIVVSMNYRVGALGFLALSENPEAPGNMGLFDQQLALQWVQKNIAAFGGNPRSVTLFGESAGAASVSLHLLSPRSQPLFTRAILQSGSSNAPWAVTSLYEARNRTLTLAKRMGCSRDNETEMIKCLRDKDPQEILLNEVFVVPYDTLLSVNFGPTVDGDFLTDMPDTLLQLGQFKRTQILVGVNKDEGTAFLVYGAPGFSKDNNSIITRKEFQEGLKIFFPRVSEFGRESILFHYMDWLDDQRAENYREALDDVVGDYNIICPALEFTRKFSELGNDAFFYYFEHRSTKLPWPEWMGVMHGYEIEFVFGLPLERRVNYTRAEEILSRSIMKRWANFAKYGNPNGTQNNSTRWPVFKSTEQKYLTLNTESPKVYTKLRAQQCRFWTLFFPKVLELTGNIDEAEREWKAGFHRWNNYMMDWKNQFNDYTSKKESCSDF

In the case of O=c1oc2cc(O)ccc2c2oc3cc(O)ccc3c12 [Coumestrol], the EC50 [1] is reported as 54 ± 1 µM, the EC50 [2] is reported as 1.17 ± 0.11 µM and the “Blot intensity of ONOO−-mediated nitrated BSA” value ([3]; 10 µM to 100 µM) is reported as “dose dependent decrease”. The IC50 [4, 11] was 42.3 ± 1.29 µM, the IC50 [5] was 24.6 ± 2.28 µM and the IC50 [6] was 51 ± 1.86 µM. The “Inhibition mode, AChE” value [7] was “Competitive”, the “Inhibition mode, AChE” value ([7]; listed as coumestrol) was “competitive” and the Ki ([7]; secondary plot, binding constant of inhibitor with free enzyme, read-out: Ki value Kic, AChE) was 48.9 µM. The “Inhibition mode, BChE” value [8] was “Mixed-type”, the “Inhibition mode, BChE” value ([8]; listed as coumestrol) was “mixed type” and the Ki ([8]; binding constant of inhibitor with enzyme-substrate complex, read-out: Ki value Kiu, BChE) was 41.9 µM. The Ki ([8]; binding constant of inhibitor with free enzyme, read-out: Ki value Kic, BChE) was 12.1 µM and the DPPH scavenging ([9]; ref 29 (Booth et al.)) was “inactivity”.

For CC(C)=CCCC(C)=CCc1cc2c(cc1O)oc(=O)c1c3ccc(O)cc3oc21 [Puerarol], the EC50 [1] was 82.5 ± 1.33 µM, the EC50 [2] was 6.99 ± 0.3 µM and the “Blot intensity of ONOO−-mediated nitrated BSA” value ([3]; 50–200 µM) was “dose dependent decrease”. It also gave an IC50 [4, 11] of 145 ± 2.46 µM, an IC50 [5] greater than 200 µM and an IC50 [6] of 28.2 ± 2.48 µM. The “Inhibition mode, BACE1” value [10] was “Mixed-type ^e”, the “Inhibition mode, BACE1” value ([10]; listed as puerarol) was “mixed inhibition; also recorded: mixed type” and the Ki ([10]; binding constant of inhibitor with enzyme-substrate complex, read-out: Ki value Kiu, BACE1) was 73.2 µM. The Ki ([10]; binding constant of inhibitor with free enzyme, read-out: Ki value Kic, BACE1) was 33.8 µM.

In the case of COc1cc(O)c2c(c1)oc(=O)c1c3cc(O)c(O)cc3oc21 [wedelolactone, reference compound], the IC50 ([9]; read-out: DPPH scavenging activity IC50) is listed as 7 µM.

O=C1O[C@H]([C@@H](O)CO)C(O)=C1O [L-Ascorbic acid, reference compound] showed an EC50 [1] of 17.4 ± 0.32 µM.

Work on COc1ccc2cc3[n+](cc2c1OC)CCc1cc2c(cc1-3)OCO2 [Berberine, berberine chloride, reference compound] yielded an IC50 [4] of 2.22 ± 0.02 µM.
